Measured values: PubChem BioAssay (NCI)
“And” between values parts separate entries of the source, which are not always exact repeats. Equal entries are not always repeated.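 Step 1: Grow cells in 96-well plates. Step 2: Expose to compound for 48 hours at 5 concentrations. Step 3: Interpolate endpoints linearly; if unreached, use highest concentration. GI50 = concentration required for 50% inhibition of growth. TGI is the concentration that stops growth completely.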

Experiments:
Assay in all cases: inhibition of tumour cell growth, NCI panel, 48 h
ACHN renal = system: ACHN renal
NCI-H522 lung = system: NCI-H522 lung
OVCAR-5 ovarian = system: OVCAR-5 ovarian
PC-3 prostate = system: PC-3 prostate
SK-MEL-2 melanoma = system: SK-MEL-2 melanoma
SK-MEL-28 melanoma = system: SK-MEL-28 melanoma
SK-OV-3 ovarian = system: SK-OV-3 ovarian
SNB-19 CNS = system: SNB-19 CNS
SR leukemia = system: SR leukemia
UACC-257 melanoma = system: UACC-257 melanoma

SMILES | GI50 (ACHN renal) | TGI (ACHN renal) | GI50 (NCI-H522 lung) | TGI (NCI-H522 lung) | GI50 (OVCAR-5 ovarian) | TGI (OVCAR-5 ovarian) | GI50 (PC-3 prostate) | TGI (PC-3 prostate) | GI50 (SK-MEL-2 melanoma) | TGI (SK-MEL-2 melanoma) | GI50 (SK-MEL-28 melanoma) | TGI (SK-MEL-28 melanoma) | GI50 (SK-OV-3 ovarian) | TGI (SK-OV-3 ovarian) | GI50 (SNB-19 CNS) | TGI (SNB-19 CNS) | GI50 (SR leukemia) | TGI (SR leukemia) | GI50 (UACC-257 melanoma) | TGI (UACC-257 melanoma)
Nc1ccc(C#Cc2cncnc2Nc2ccc(OCc3cccc(F)c3)c(Cl)c2)cc1 | 6.87 µM | > 25 µM | 4.94 µM | > 23.2 µM | > 25 µM | > 25 µM | 8.91 µM | > 25 µM | > 16.4 µM | > 25 µM | > 19 µM | > 25 µM | 8.88 µM | > 25 µM | > 14.3 µM | > 25 µM | > 18 µM | > 25 µM | > 13.2 µM | > 25 µM
COC(=O)c1ccccc1NC(=O)C(=O)CC(=O)c1ccccc1NC1=CC(=O)C(=O)c2ccccc21 |  | 59.5 µM |  | 21.4 µM |  | 57.7 µM |  | 42.3 µM |  | 30.5 µM |  | 29.4 µM |  | 96.1 µM |  | 77.5 µM |  | > 100 µM |  | 14.8 µM
C(CCc1nnc2c(n1)CCCC2)Cc1nnc2c(n1)CCCC2 |  | > 100 µM |  | > 100 µM |  | > 100 µM |  | > 100 µM |  | > 100 µM |  | > 100 µM |  | > 100 µM |  | > 100 µM |  | > 100 µM |  | 
COC(=O)c1ccc(=O)c2nc3/c(=C/O)c(O)cc(=O)c3[nH]c12 | 0.478 µM | 16.6 µM and 14.5 µM | 0.389 µM | 31 µM and 18.2 µM | 3.38 µM | 13 µM and 22.4 µM | 0.525 µM | 17.1 µM and 16.6 µM | 2.27 µM | 15 µM and 16.7 µM | 4.17 µM | 19.8 µM and 21.1 µM | 2.62 µM | 16.4 µM and 20.8 µM | 1.28 µM | 32.2 µM and 20.4 µM | 0.361 µM | > 64.9 µM | 2.74 µM | 16.1 µM and 27.8 µM
Nc1nc2ccc([C@@H]3Nc4ccc5[nH]ncc5c4[C@H]4[C@H]5CCC(C5)[C@H]43)cc2s1 | 1.37 µM | 9.57 µM | 1.38 µM | 3.4 µM | 1.83 µM | 4.41 µM | 1.04 µM | 3.2 µM | 1.82 µM | 6.79 µM | 1.36 µM | 4.29 µM | 1.73 µM | 3.63 µM | 1.3 µM | 11 µM | 0.336 µM | 2.72 µM | 2.12 µM | 5.46 µM
O=C1/C(=C/c2ccccc2)SC(=Nc2ccccc2)N1Nc1ccccc1 | 23 µM | > 100 µM | 15.5 µM | 84.8 µM | 34.1 µM | > 100 µM | 4.49 µM | > 100 µM | 14.9 µM | 43.7 µM | 16.2 µM | 71 µM | 24.4 µM | > 100 µM | 13.5 µM | > 100 µM | 21.3 µM | > 100 µM | 14.2 µM | > 100 µM
COc1ccc(-c2cnc(-c3ccc(F)cc3)[nH]2)cc1 | 15.2 µM | 30.5 µM | 20.5 µM | > 56.1 µM | 12.6 µM | 43.9 µM | 10.8 µM | 68.4 µM | 18.8 µM | 45 µM | 3.69 µM | 8.5 µM | 16.5 µM | > 66.4 µM | 10.8 µM | 26.1 µM | 2.41 µM | 6.27 µM | 5.17 µM | 17.2 µM
COC(=O)c1c2c(c(C)[n+]([O-])c1C)C(=O)C=C(NCc1cccc(OC)c1)C2=O | 1.01 µM | 2.19 µM | 0.429 µM | 2.24 µM | 1.31 µM | 2.77 µM | 0.333 µM | 2.73 µM | 1.15 µM | 2.78 µM |  |  |  |  |  |  | 0.561 µM | 8.11 µM | 0.254 µM | 0.786 µM
Cc1cc(O)c2c(c1)C(=O)c1cc(O)cc(O)c1C2=O |  | 73.3 µM |  | > 66.3 µM |  | > 100 µM | 25 µM | > 100 µM |  | > 74.3 µM |  | > 82.9 µM |  | > 91.9 µM |  | > 100 µM |  | 68 µM |  | > 100 µM
Cc1cc(=O)oc2cc(OC(=O)Nc3ccc(Cl)c(Cl)c3)ccc12 |  | 78.1 µM |  | 54.4 µM |  | 61.9 µM |  | 68.2 µM |  | 56.1 µM |  | 67.3 µM |  | 88.4 µM |  | 77.2 µM |  | 46.3 µM |  | 84.2 µM
COC(=O)[C@]12CC[C@@H](C)[C@H](C)[C@@H]1C1=CC[C@@H]3[C@@]4(C)C(C=O)=C[C@@](C)(COC(C)=O)[C@@H]4[C@H](O)C[C@@]3(C)[C@]1(C)CC2 | 1.92 µM | 4.32 µM | 3.46 µM | 8.83 µM | 2.03 µM | 5.6 µM | 1.73 µM | 5.74 µM | 2.61 µM | 6.15 µM | 2.16 µM | 4.92 µM | 4.35 µM | 16.1 µM | 3.22 µM | 14.8 µM | 1.84 µM | 5.4 µM | 2.02 µM | 4.8 µM
C=C1C(=O)O[C@H]2[C@H]1CC/C(COC(=O)C(=O)c1c[nH]c3ccc(OC)cc13)=C\CC[C@@]1(C)O[C@@H]21 | 4.21 µM | 9.2 µM | 5.34 µM | 9.31 µM | 7.11 µM | 14.1 µM | 6.08 µM | 11.1 µM |  | > 20.4 µM | 5.05 µM | 9.55 µM | 19.8 µM | 35.1 µM | 8.97 µM | 19.6 µM | 3.29 µM | 29 µM | 6.53 µM | 12.1 µM
CN1CCN(c2ccc(-c3cnc4c(-c5csc6ccccc56)cnn4c3)cc2)CC1 | 2.95 µM | 6.13 µM | 8.15 µM | > 15 µM | > 15 µM | > 15 µM | 5.59 µM | > 15 µM | > 15 µM | > 15 µM | > 15 µM | > 15 µM | > 15 µM | > 15 µM | 9.25 µM | > 15 µM | 3.03 µM | > 15 µM | 13.8 µM | > 15 µM
C=C(CNCCc1ccc(O)cc1)[C@@H]1CC[C@]2(CO)CC[C@]3(C)[C@H](CC[C@@H]4[C@@]5(C)CCC(=O)C(C)(C)[C@@H]5CC[C@]43C)[C@@H]12 | 1.61 µM | 2.96 µM | 1.69 µM | 3.23 µM | 1.59 µM | 3 µM | 1.32 µM | 2.69 µM | 1.75 µM | 3.27 µM | 1.7 µM | 3.14 µM | 1.79 µM | 3.51 µM | 1.62 µM | 3.02 µM | 1.3 µM | 4.17 µM | 1.78 µM | 3.26 µM
